Source: article PMC5848141, “A Pyridazine-Based Fluorescent Probe Targeting Aβ Plaques in Alzheimer's Disease” (Journal of Analytical Methods in Chemistry, 2018)

Biological target: T1, β-amyloid Aβ42 (aggregates) (Homo sapiens, UniProt P05067)
T1 construct: gene APP; synthetic Aβ42 peptide, aggregated (fibrils)
Assay: fluorescence saturation titration of probe with […] aggregated Aβ[…] in PBS
Assay type: binding
Settings: read-out: Probe 3

T1 sequence (P05067 672-713 limits assumed): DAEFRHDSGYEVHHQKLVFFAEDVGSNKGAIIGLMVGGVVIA

Question: How did the Kd turn out when `CN(C)c1ccc(/C=C/n2ncc3c(c2=O)Oc2ccc(C=C(C#N)C(=O)O)cc2O3)cc1` [compound 3, probe 3] was run?
Answer: Its Kd is 0.35 ± 0.03 µM.
